Four compounds from paper PMC6017331, “Bacterial Production, Characterization and Protein Modeling of a Novel Monofuctional Isoform of FAD Synthase in Humans: An Emergency Protein?” (Molecules : A Journal of Synthetic Chemistry and Natural …, 2018) can be followed below.

Usually stoichiometry N stands for the number of molecules, sites or subunits per partner or assembly.

Experiment [1] deals with human FAD synthase isoform 2 (6-His-hFADS2) (human). Nature of the experiment: SEC-MALS; tandem HPLC-GPC/LS on a Superose 12 10/300 GL column, 0.5 mL/min, 40 mM Hepes/Na, 150 mM NaCl, pH 7.4; MALS masses taken from the peaks run with 1 mM DTT. In general terms: In gel filtration, larger molecules generally elute earlier.
Experiment [2] addresses T1, hFADS6 (6-His-hFADS6; human FAD synthase isoform 6) (Homo sapiens, UniProt Q8NFF5).
T1 construct: gene FLAD1; 320 residues (963 bp cDNA) from Met268 of FADS1, PAPS reductase domain plus N-terminal extension; E. coli Rosetta(DE3)pLysS; monomer
Nature of the experiment: fluorimetric FAD synthesis, Michaelis-Menten fit. Format: biochemical. The settings on record: 5 mM MgCl2, 50 mM Tris/HCl pH 7.5, 37 °C.

The target in experiment [3] is T1, hFADS6 (6-His-hFADS6; human FAD synthase isoform 6). Nature of the experiment: fluorimetric FAD pyrophosphorolysis. The class given is biochemical. The settings on record: NaPPi, 5 mM MgCl2, 50 mM Tris/HCl pH 7.5, 37 °C; reverse reaction; detection limit of the instrument; read-out: KmFAD.
The target is the same in experiment [4]. Nature of the experiment: absorbance spectrum and HPLC of acid-extracted flavin from purified protein. The class given is binding. To be noted: co-purified from E. coli; tightly but not covalently bound.

T1 sequence (Q8NFF5 268-587): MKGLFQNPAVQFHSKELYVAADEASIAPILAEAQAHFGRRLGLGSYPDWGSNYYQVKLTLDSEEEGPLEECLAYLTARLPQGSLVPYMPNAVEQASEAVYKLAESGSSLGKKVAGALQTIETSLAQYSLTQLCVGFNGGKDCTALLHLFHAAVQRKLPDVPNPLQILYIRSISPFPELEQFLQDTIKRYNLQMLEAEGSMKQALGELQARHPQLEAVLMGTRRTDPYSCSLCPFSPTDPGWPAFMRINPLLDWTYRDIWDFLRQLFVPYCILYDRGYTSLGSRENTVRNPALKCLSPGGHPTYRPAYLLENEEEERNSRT
Chain of human FAD synthase isoform 2 (6-His-hFADS2) (enzyme) (Q8NFF5 98-587): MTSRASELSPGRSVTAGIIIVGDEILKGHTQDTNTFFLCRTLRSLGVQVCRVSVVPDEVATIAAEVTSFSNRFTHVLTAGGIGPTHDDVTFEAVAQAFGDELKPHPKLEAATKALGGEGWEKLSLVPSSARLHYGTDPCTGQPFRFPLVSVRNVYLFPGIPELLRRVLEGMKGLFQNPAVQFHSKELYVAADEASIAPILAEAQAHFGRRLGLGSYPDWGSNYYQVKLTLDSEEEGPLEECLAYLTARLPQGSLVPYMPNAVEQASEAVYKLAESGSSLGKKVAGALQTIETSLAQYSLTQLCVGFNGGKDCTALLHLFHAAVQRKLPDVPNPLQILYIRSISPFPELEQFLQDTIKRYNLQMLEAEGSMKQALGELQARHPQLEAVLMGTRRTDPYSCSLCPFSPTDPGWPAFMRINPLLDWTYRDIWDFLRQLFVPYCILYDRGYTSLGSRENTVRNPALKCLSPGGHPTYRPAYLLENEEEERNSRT

“human FAD synthase isoform 2 (6-His-hFADS2) (enzyme)” displayed a stoichiometry N in experiment [1] of 2.

For the compound `Nc1ncnc2c1ncn2[C@@H]1O[C@H](COP(=O)(O)OP(=O)(O)OP(=O)(O)O)[C@@H](O)[C@H]1O` [ATP], the Km in experiment [2] (2 µM FMN, read-out: KmATP (apparent)) is 6.91 ± 0.51 µM.

For `Cc1cc2nc3c(=O)[nH]c(=O)nc-3n(C[C@H](O)[C@H](O)[C@H](O)COP(=O)(O)OP(=O)(O)OC[C@H]3O[C@@H](n4cnc5c(N)ncnc54)[C@H](O)[C@@H]3O)c2cc1C` [FAD], the Km in experiment [3] was less than 0.1 µM. In experiment [4], the FAD/monomer ratio entry is listed as “demonstrates that the bound cofactor is FAD”.

For the compound `Cc1cc2nc3c(=O)[nH]c(=O)nc-3n(C[C@H](O)[C@H](O)[C@H](O)COP(=O)(O)O)c2cc1C` [FMN], the Km in experiment [2] (100 µM ATP, read-out: KmFMN (apparent)) is 0.13 ± 0.01 µM.
